Measured values reported in patent US9878054B2, “Polypeptide and lipophilic moiety conjugate compositions, formulations, and uses related thereto” (Tufts Medical Center, Inc., priority 2012, dated 2018).
Where a SMILES comes first, the peptide text is derived from it. The star is where a group is joined. Palmitoyl = CCCCCCCCCCCCCCCC(=O)*

Key:
PAR4 [1] = biological target: T1, PAR4 (Homo sapiens, UniProt Q96RI0); test: Human platelet aggregation, PAR4 agonist AYPGKF; type: cell-based; conditions: human platelets; 200 μM AYPGKF
T1 construct: Platelets were isolated from platelet rich plasma (PRP) using Sepharose 2B columns; endogenous in cells; host or cells: human platelets from healthy donors, gel-filtered
T1 sequence (Q96RI0 18-385): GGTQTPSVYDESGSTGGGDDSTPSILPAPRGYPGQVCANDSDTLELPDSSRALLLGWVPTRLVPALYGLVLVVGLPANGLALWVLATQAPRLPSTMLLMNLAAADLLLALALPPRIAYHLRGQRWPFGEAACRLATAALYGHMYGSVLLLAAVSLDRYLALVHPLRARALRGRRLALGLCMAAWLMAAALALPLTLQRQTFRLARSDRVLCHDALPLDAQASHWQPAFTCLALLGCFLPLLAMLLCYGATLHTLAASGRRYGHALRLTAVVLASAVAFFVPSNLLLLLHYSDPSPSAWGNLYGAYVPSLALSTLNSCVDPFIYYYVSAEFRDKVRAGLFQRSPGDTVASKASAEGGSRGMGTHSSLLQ
Description: (§1) A, Depiction of the mechanism of action of the cell-penetrating PZ-128 pepducin compound targeting the third intracellular loop (red) of PAR1. B, The NMR structure of PZ-128 was determined by simulated annealing methods using 210 distance restraints and included restraints to the proximal 3 hydrocarbons of the lipid. […] D, PZ-128 inhibits PAR1-dependent platelet aggregation. Gel filtered human platelets were treated with various concentrations of PZ-128 and then challenged with the PAR1 agonist SFLLRN (2.5 μM), 20 μM ADP, 200 μM AYPGKF or 1 mg/ml Ristocetin. E, Human platelets were treated with 3 μM PZ-128, 3 μM RWJ-56110, or 5% dextrose vehicle before the addition of various concentrations of thrombin (n=3-5).
(§2) PZ-128 also markedly right-shifted thrombin-induced aggregation by 5-fold. By comparison, the small molecule RWJ-56110 which antagonizes PAR1 at the extracellular ligand-binding site gave a 2-fold right shift in the thrombin activation curve of human platelets.
(§3) Whole blood from healthy donors was collected into a 30 ml syringe containing sodium citrate (0.4% vol/vol final). Platelets were isolated from platelet rich plasma (PRP) using Sepharose 2B columns in modified PIPES buffer.

[2] = system: human platelets (thrombin); test: Thrombin-induced aggregation of human platelets; type: cell-based; conditions: 3 μM compound
Description: as §1, §2, §3

PAR1 [3] = test: Guinea pig ex vivo platelet aggregation to SFLLRN after iv infusion; type: in vivo; conditions: 3 and 6 mg/kg, 10 min iv infusion, 15 min time point, 2.5 μM SFLLRN
Description: (§8) PZ-128 or 5% dextrose USP vehicle was infused for 10 min into the jugular vein of male and female guinea pigs (0.55-0.65 kg). A-C, At the 15 min time point, whole blood was collected by cardiac puncture in 100 μg/ml PPACK/4% Na-citrate (final) anti-coagulant and platelet rich plasma (PRP) prepared and aggregation measurements were performed. […] B-C, PRP obtained at the 15 min time point after infusion with vehicle, 3 mg/kg PZ-128 or 6 mg/kg PZ128 was challenged with 2.5 μM SFLLRN, 20 μM ADP or 20 μM thromboxane mimetic, U46119. Individual data points (n=3) are overlayed on bar graphs depicting mean±SD. […] Data in B-D were analyzed by the non-parametric Kruskal-Wallis test with the Dunn's multiple pairwise comparison post-test.
(§9) PZ-128 micelles were delivered by internal jugular vein infusions over 10 min.
(§10) Guinea pigs weighing 600-650 g were used for platelet aggregation experiments. PZ-128 micelles (3 or 6 mg/kg) were administered by a 10 min intravenous infusion, and blood was collected by cardiac puncture into sodium citrate (0.4% vol/vol final) 5 minutes after cessation of the infusion. PRP was prepared and PPACK added to a final concentration of 100 μg/ml. PRP was calcified with 2.5 mM CaCl2 and aggregation was performed as described above.

[4] = system: guinea pig platelets (thromboxane mimetic U46119); test: Guinea pig ex vivo platelet aggregation to thromboxane mimetic U46119 after iv infusion; type: in vivo; conditions: 3 or 6 mg/kg iv, 20 μM U46119
Description: as §8, §9, §10

PAR1 [5] = test: Baboon ex vivo platelet aggregation, SFLLRN (PAR1); type: in vivo
Description: (§4) A-C, Male baboons (10-12 kg) were administered 1, 3 or 6 mg/kg PZ-128, or 5% dextrose USP vehicle by iv infusion and blood collected into 100 μg/ml PPACK anticoagulant at 0, 1, 2, 6, or 24 h time points. Light transmission platelet aggregometry was performed with platelet rich plasma with the indicated agonists (SFLLRN for PAR1, AYPGKF for PAR4 and ADP for P2Y12 and P2Y1). Data are reported as mean±SD (n=3-7) relative to time 0 controls (0%) and were analyzed by repeated measures one-way ANOVA with Bonferroni post-test correction; *P<0.05, **P<0.01 relative to time 0. Global P values were >0.05 for 1 mg/kg, 0.004 for 3 mg/kg, <0.0001 for 6 mg/kg. D, Pharmacokinetics of 3 and 6 mg/kg 45-min iv infusions of PZ-128 in male baboons. Plasma PZ-128 levels were measured by LC/MS/MS at 9 sequential time points: baseline, 15 min, 30 min, 1 h, 2 h, 4 h, 8 h, 24 h and 48 h after the start of infusion. Open symbols indicated plasma concentrations that were under the measurement threshold (5 ng/ml).
The anti-platelet effects of PZ-128 micelles were next examined in baboons at various time points after receiving different doses of intravenous infusions. […] At the lowest dose tested, 1 mg/kg PZ-128 micelles ([…]), PAR1-dependent aggregation (5 μM SFLLRN) was inhibited by only 5-10% at the 1-2 h time points (FIG. 3A). […] As a further assessment of in vivo specificity, PZ-128 gave no inhibition at any dose of either the ADP or AYPGKF (PAR4) responses at any time point.
(§5) Non-terminal thrombosis and platelet aggregation studies were performed on 12 healthy male baboons (Papio anubis) weighing 9-12 kg at the Oregon National Primate Research Center (ONPRC). […] Whole blood (10 ml) was collected into PPACK at a final concentration of 100 μg/ml just prior to infusion (baseline) and 15 min to 24 h after the PZ-128 micelle infusion was terminated. Platelet counts and hematocrit were measured immediately. PRP was prepared from whole blood and platelet aggregation performed as described above. Bleeding time (BT) measurements were performed on the shaved volar surface of the forearm using the standard template method.

P2Y12 and P2Y1 = test: Baboon ex vivo platelet aggregation, ADP; type: in vivo; conditions: any dose, any time point
Description: as §4
(§6) The anti-platelet effects of PZ-128 micelles were next examined in baboons at various time points after receiving different doses of intravenous infusions. […]
(§7) Non-terminal thrombosis and platelet aggregation studies were performed on 12 healthy male baboons (Papio anubis) weighing 9-12 kg at the Oregon National Primate Research Center (ONPRC). […] Platelet counts and hematocrit were measured immediately. […]

PAR4 [6] = test: Baboon ex vivo platelet aggregation, AYPGKF (PAR4); type: in vivo; conditions: any dose, any time point
Description: as §4, §6, §7

[7] = Bleeding time, platelet counts and hematocrit in baboons; type: in vivo; conditions: baboon; all doses tested (1-6 mg/kg)
Description: Whether PZ-128 had any adverse effects on hemostasis or coagulation indices in baboons and monkeys was evaluated. At all doses tested (1-6 mg/kg), PZ-128 micelles had no effect on bleeding time, platelet counts or hematocrit in baboons (Table 2).
as §5

[8] = system: human whole blood (red blood cell lysis); test: Hemolysis of human whole blood; type: cell-based; conditions: up to 3.3 mg/mL in 5% dextrose, blood mixed 2:1; 40 min at 37° C.
Description: Fresh human whole blood (anticoagulated with 10 U heparin/mL) was mixed 2:1 with the various indicated dilutions of micelles of PZ-128 in 5% dextrose, incubated for 40 min at 37° C., and red blood cell lysis quantified by hemoglobin (Hb) release into the supernatant.
The PZ-128 micelle particles were solubilized in 5% dextrose/water at 10 mg/mL concentration and serially diluted with additional 5% dextrose/water to make stock solutions of 0.75, 1.5, 2.25, 3.0, 3.3 and 4.0 mg/mL PZ-128 in 5% dextrose water. Fresh human whole blood (anticoagulated with 10 U heparin/mL) was mixed 2:1 with the various dilutions of PZ-128 in 5% dextrose, incubated for 40 min at 37° C., and red blood cell lysis quantified by hemoglobin (Hb) release into the supernatant. […] The final pH of the PZ-128 micelles in 5% dextrose/water ranged from 6.75 to 7.13 at 1.25-10 mg/mL at room temperature.

In the case of `CCCCCCCCCCCCCCCC(=O)N[C@@H](CCCCN)C(=O)N[C@@H](CCCCN)C(=O)N[C@@H](CO)C(=O)N[C@@H](CCCNC(=N)N)C(=O)N[C@@H](C)C(=O)N[C@@H](CC(C)C)C(=O)N[C@@H](Cc1ccccc1)C(N)=O` [PZ-128, palmitate-KKSRALF-NH2] (Palmitoyl-KKSRALF-NH2), the “Inhibitory activity against PAR4 (AYPGKF) aggregation” value (PAR4 [1]) is reported as “no inhibitory activity”, the “Right shift of thrombin-induced aggregation curve” value [2] is reported as 5 fold and the “Inhibition of ex vivo platelet aggregation to SFLLRN” value (PAR1 [3]) is reported as “significant, dose-dependent inhibition”. For the same compound, the “Effect on ex vivo aggregation to thromboxane mimetic U46119” value [4] was “no effect”, the “Inhibition of PAR1-dependent ex vivo aggregation” value (PAR1 [5]; 1 mg/kg, 30 min infusion, 5 μM SFLLRN, 1-2 h) was 5-10% and the “Reversibility: inhibition with higher concentration of SFLLRN agonist” value (PAR1 [5]; 3 mg/kg and 6 mg/kg, 10 μM SFLLRN) was “loss of inhibition”. The “Inhibition of PAR1-dependent ex vivo aggregation” value (PAR1 [5]; 3 mg/kg, 30 min infusion, 1 h and 2 h) was 85%, the “Inhibition of PAR1-dependent ex vivo aggregation” value (PAR1 [5]; 3 mg/kg, 24 h) was “not appreciably inhibited” and the “Inhibition of PAR1-dependent ex vivo aggregation” value (PAR1 [5]; 6 mg/kg, 45 min infusion, 1-2 h) was 100%. For the same compound, the “Inhibition of PAR1-dependent ex vivo aggregation” value (PAR1 [5]; 6 mg/kg, 45 min infusion, 6 h) was 90%, the “PAR1-dependent ex vivo aggregation, recovery” value (PAR1 [5]; 6 mg/kg, 24 h) was “completely recovered” and the “Inhibition of ADP response ex vivo” value (P2Y12 and P2Y1) was “no inhibition”. The “Inhibition of AYPGKF (PAR4) response ex vivo” value (PAR4 [6]) was “no inhibition”, the “Effect on bleeding time, platelet counts or hematocrit” value [7] was “no effect” and the “Hemolysis of human whole blood (Hb release)” value [8] was “no significant hemolysis”.
